This assay addresses T1, GST-OSBP(377-807) (Homo sapiens, UniProt P22059).
T1 sequence (P22059 377-807): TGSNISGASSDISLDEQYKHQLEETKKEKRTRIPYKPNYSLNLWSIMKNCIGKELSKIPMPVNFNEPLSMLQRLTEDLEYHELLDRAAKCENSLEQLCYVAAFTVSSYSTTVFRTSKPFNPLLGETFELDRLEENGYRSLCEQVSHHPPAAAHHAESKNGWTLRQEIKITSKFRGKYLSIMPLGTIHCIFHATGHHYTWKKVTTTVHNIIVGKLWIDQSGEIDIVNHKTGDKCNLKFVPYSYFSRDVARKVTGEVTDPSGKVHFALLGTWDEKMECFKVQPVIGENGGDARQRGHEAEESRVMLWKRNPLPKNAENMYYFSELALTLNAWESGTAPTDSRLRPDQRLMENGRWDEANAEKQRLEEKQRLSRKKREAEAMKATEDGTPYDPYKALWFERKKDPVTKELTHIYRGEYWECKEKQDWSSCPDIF
Description: competitive fluorescence polarization. In kind it is binding.

Structures are written as SMILES.

Compound `C[C@H](CCC(=O)NCCCOCCCCOCCCNC(=O)OC(C)(C)C)[C@H]1CC[C@H]2[C@@H]3CC=C4C[C@@H](O)CC[C@]4(C)[C@H]3CC[C@]12C` [C3_Boc, oxybipin-2] had an IC50 of 74 nM.

As to `C[C@H](CCC(=O)NCCCOCCCCOCCCNC(=O)CC12CC3CC(CC(C3)C1)C2)[C@H]1CC[C@H]2[C@@H]3CC=C4C[C@@H](O)CC[C@]4(C)[C@H]3CC[C@]12C` [C3_HyT, oxybipin-1], the IC50 was found to be 142 nM.

The values above are taken from paper doi:10.1101/2023.04.01.534865v1 (biorxiv, 2023).
